Each block holds one compound with its values, some of them ahead of it. Where a SMILES comes first, the peptide text is derived from it. Where no end group is shown, it is not given here.
Columns and labels:
Baboon Skin = experiment: Skin test, intradermal titration in baboon skin in vivo; conditions: for ACTIVITY: average concentration of peptide to give an end point in intradernal titrations in baboon skin: read 20 minutes after intradermal challenge
Procedure: (§1) Skin tests were carried out in the shaved backs of animals (rats and baboons) immediately after intravenous injection of pontamine sky blue (5%) in aqueous sodium chloride solution (0.9%) at a dose of 0.1 ml per kilogram of body weight in the case of rats and 5 ml per animal in the case of baboons.
(§2) Peptide in aqueous sodium chloride solution (0.9%), or saline control, were injected intradernally in 0.05 ml or 0.10 ml volumes. Skin reactions were read 20 minutes after intradernal challenge.

[1] = system: Rat Peritoneal Mast Cells; experiment: Cr^51 and lactic dehydrogenase (LDH) release from rat peritoneal mast cells; format: cell-based; conditions: Rat Mast Cells in vitro
From the text: (§3) (a) (1) Histamine, (2) Cr^51 and (3) Lactic Dehydrogenase Release from Rat Peritoneal Mast Cells (Rat Mast Cell in vitro test)
(§4) Mast cells, derived from the peritoneal washings of three male, outbred Wistar rates (250-300 g), were purified by the procedure according to Cooper and Stanworth (Preparative biochem. 4(2), 105, 1975).
(§5) The purified cells were washed twice in Dulbecco's incomplete (i.e. free from mineral salts) buffer and then resuspended in Dulbecco's medium to the required volume. In a typical experiment, sufficient cells were available for 30 duplicate challenges, i.e. 60 samples and in this case the resuspension volume employed was 6.1 mls. 0.1 ml of cell suspension were taken for estimating the cell count.
One third of the cell suspension was employed. […] Activity present in the whole recovered supernatants was measured using a Tracer Laboratory Spectromatic γ counter. The percentage of Cr^51 released was assessed in relation to the values obtained for the positive and negative control solutions.
One third of the cell suspension was employed. […] The solutions were incubated at ambient temperature for 20 minutes and the fluorescence emission was then measured. […] The LDH activity was assessed in terms of the increase of fluorescence over control due to NADH formation following lactate addition. […]

Rat Skin = experiment: Skin test, intradermal titration in rat skin in vivo; conditions: read 20 minutes after intradermal challenge
Procedure: as §1, §2

[2] = system: Rat Peritoneal Mast Cells; experiment: Histamine release from rat peritoneal mast cells (Rat Mast Cell in vitro test); format: cell-based; conditions: for EC50: average of a number of experiments, read-out: ACTIVITY: average concentration of peptide to give approximately 50% release of available histamine from rat mast cells
From the text: as §3, §4, §5
One third of the cell suspension was employed. To 0.9 ml duplicate aliquots of challenge solution, prepared in complete Dulbecco's medium and prewarmed to 37° C., was added 0.1 ml of cell suspension. The solutions were then shaken gently, and allowed to incubate for 5 minutes at 37° C. The reaction tubes were then quickly removed from the incubator and placed in an ice bath. Supernatants were then seqparated from the cell population following centrifugation for 3 minutes at 1000 r.p.m. The cell residues were then treated with 2 mls of 0.4 N perchloric acid and allowed to stand for approximately 30 minutes at ambient temperature. The precipitated protein was removed by centrifugation and the supernatant solutions set aside for histamine analysis. The original supernatant solutions were treated with 1.0 ml of 0.8 N perchlorate and then treated in a similar manner to the cell residues. Histamine was measured by the method according to Evans, Lewis and Thompson (Life Sciences, 12, 327, 1973) using a Technicon Auto-analyser. Histamine release was calculated as a percentage of total histamine available in each challenge solution.

[3] = system: peritoneal mast cells of ovalbumen-immunised Brown Norway rats; experiment: Cross desensitisation between antigen and peptide in the in vitro rat mast cell system; format: cell-based
Procedure: (c) Cross Desensitisation in the vitro rat mast cell system between antigen and peptide
Brown Norway rats were immunised intraperitoneally with 100 μg of ovalbumen (XOA) in lmg `alum`. On day 27, peritoneal mast cells were removed, bulked and washed. Aliquots of cells were desensitised by the addition of 4×5 minute incubations with various XOA or peptide concentrations or buffer alone. The cells were then submitted to an optimal histamine releasing challenge of peptide, XOA, or challenged with buffer alone.

[4] = cells desensitised with the substance in 4 rising steps (BRL 21547 5 × 10^-8 to 10^-6 M; XOA 0.005 to 0.1 μg/ml), challenge Buffer
[5] = cells desensitised with the substance in 4 rising steps, challenge BRL 21547 (10^-5 M)
[6] = cells desensitised with the substance in 4 rising steps, challenge XOA lμg/ml
[7] = desensitisation steps 1-4 Buffer, challenge with the substance (BRL 21547 10^-5 M; XOA lμg/ml)

Compound: COC(=O)[C@H](Cc1ccccc1)NC(=O)[C@H](Cc1ccccc1)NC(=O)CNC(=O)[C@H](CO)NC(=O)CNC(=O)[C@H](CCCCN)NC(=O)[C@@H](NC(=O)[C@@H](N)CCCCN)[C@@H](C)O [Example No. 1, LysThrLysGlySerGlyPhePheOMe] (H-KTKGSGFF-OMe)
ACTIVITY: average concentration of peptide to give an end point in intradernal titrations in baboon skin (Baboon Skin): 500 nM
LDH/^51 Cr Release ([1]; at 10^-6 M): None
ACTIVITY: average concentration of peptide to give an end point in intradernal titrations in rat skin (Rat Skin): 100 µM
EC50 [2]: 7.5 µM
Inhibition of Activity ([2]; inhibition of the peptide's histamine release by Intal (10^-4)): 50%

Compound: COC(=O)[C@H](Cc1ccccc1)NC(=O)[C@H](Cc1ccccc1)NC(=O)CNC(=O)[C@H](CO)NC(=O)CNC(=O)[C@H](CCCCN)NC(=O)[C@@H](NC(=O)[C@H](CCCCN)NC(=O)[C@@H](N)CCCNC(=N)N)[C@@H](C)O [Example No. 2, ArgLysThrLysGlySerGlyPhePheOMe] (H-RKTKGSGFF-OMe)
ACTIVITY: average concentration of peptide to give an end point in intradernal titrations in baboon skin (Baboon Skin): 100 nM
ACTIVITY: average concentration of peptide to give an end point in intradernal titrations in rat skin (Rat Skin): 100 µM
EC50 [2]: 0.15 µM

Compound: COC(=O)[C@H](Cc1ccccc1)NC(=O)[C@@H](NC(=O)[C@H](Cc1ccccc1)NC(=O)[C@H](Cc1ccccc1)NC(=O)CNC(=O)[C@H](CO)NC(=O)CNC(=O)[C@H](CCCCN)NC(=O)[C@@H](NC(=O)[C@@H](N)CCCCN)[C@@H](C)O)C(C)C [Example No. 3, LysThrLysGlySerGlyPhePheValPheOMe] (H-KTKGSGFFVF-OMe)
Inhibition of Activity (Baboon Skin; by Antihistamine or Intal-like drug): Partial
ACTIVITY: average concentration of peptide to give an end point in intradernal titrations in baboon skin (Baboon Skin): 10 nM
cross-desensitisation in rat mast cells in vitro between peptide and antigen (in words) [3]: cross-desensitisation
Total average % histamine release [3, 4]: 6%
Total average % histamine release [3, 5]: 6%
Total average % histamine release [3, 6]: 17%
Total average % histamine release [3, 7]: 47%
LDH/^51 Cr Release ([1]; at 10^-4 M peptide): None
ACTIVITY: average concentration of peptide to give an end point in intradernal titrations in rat skin (Rat Skin): 10 µM
EC50 [2]: 1 µM

Compound: KTKGSGFFVF-OH [Example No. 4, LysThrLysGlySerGlyPhePheValPheOH]
ACTIVITY: average concentration of peptide to give an end point in intradernal titrations in baboon skin (Baboon Skin): 10000 nM
ACTIVITY: average concentration of peptide to give an end point in intradernal titrations in rat skin (Rat Skin): 100 µM
EC50 [2]: 33 µM

Compound: XOA: ovalbumen (XOA), the antigen used to immunise Brown Norway rats and to challenge or desensitise their mast cells [reference compound]
Total average % histamine release [3, 4]: 6%
Total average % histamine release [3, 5]: 6%
Total average % histamine release [3, 6]: 6%
Total average % histamine release [3, 7]: 56%

Second part, led by results:

EC50 [2]: 9.2 µM
Compound: COC(=O)[C@H](Cc1ccccc1)NC(=O)[C@H](Cc1ccccc1)NC(=O)CNC(=O)[C@H](CO)NC(=O)CNC(=O)[C@H](CCCCN)NC(=O)[C@@H](NC(=O)[C@H](CCCCN)NC(=O)[C@H](CCCNC(=N)N)NC(=O)[C@@H]1CCCN1)[C@@H](C)O [Example No. 5, ProArgLysThrLysGlySerGlyPhePheOMe] (H-PRKTKGSGFF-OMe)
ACTIVITY: average concentration of peptide to give an end point in intradernal titrations in baboon skin (Baboon Skin): 100 nM
ACTIVITY: average concentration of peptide to give an end point in intradernal titrations in rat skin (Rat Skin): 100 µM

EC50 [2]: 10 µM
Compound: KTKGSGFF-OH [Example No. 6, LysThrLysGlySerGlyPhePheOH]
ACTIVITY: average concentration of peptide to give an end point in intradernal titrations in baboon skin (Baboon Skin): 10000 nM
ACTIVITY: average concentration of peptide to give an end point in intradernal titrations in rat skin (Rat Skin): 100 µM

From patent publication US4223016A, “Peptides” (Beecham Group Limited, priority 1977, dated 1980)
